Measurements: ChEMBL document CHEMBL5325431, “Synthesis of thieno[3,2-e]pyrrolo[1,2-a]pyrimidine derivatives and their precursors containing 2-aminothiophenes fragments as anticancer agents for therapy of pulmonary metastatic melanoma” (Eur J Med Chem, 2023)
Calls of active or inactive are those of the source. No cut-off for these calls is given here.

Assays:
[1] = Toxicity in C57BL/6 mouse assessed as body weight gain at 37 mg/kg, ip measured for 22 days; type: organism-based; conditions: in vivo, 528 h, time 22 day
[2] = Toxicity in C57BL/6 mouse assessed as effect on urea level at 37 mg/kg, ip measured for 22 days; type: organism-based; conditions: in vivo, 528 h, time 22 day
[3] = test system: B16-F10; experiment: Induction of apoptosis in mouse B16-F10 cells assessed as late apoptotic cells at 10 uM measured after 48 hrs by Annexin V-FITC/7-AAD staining based flow cytometric analysis relative to control; type: functional
[4] = test system: B16-F10; experiment: Induction of apoptosis in mouse B16-F10 cells assessed as early apoptotic cells at 15 uM measured after 48 hrs by Annexin V-FITC/7-AAD staining based flow cytometric analysis relative to control; type: functional
[5] = test system: B16-F10; experiment: Antitumor activity against metastatic mouse B16-F10 cells implanted in C57BL/6 mouse assessed as number of lung metastases at 9 to 9.5 mg/kg, ip administered for 22 days by histological analysis (reference value: 223 +/- 12); type: functional; conditions: dose 9-9.5 mg/kg, time 22 day
[6] = test system: B16-F10; experiment: Induction of apoptosis in mouse B16-F10 cells assessed as viable cells at 10 uM measured after 48 hrs by Annexin V-FITC/7-AAD staining based flow cytometric analysis relative to control; type: functional; conditions: read-out: Activity
[7] = Toxicity in C57BL/6 mouse implanted with mouse B16-F10 cells assessed as spleen damage at 9 to 9.5 mg/kg, ip by H and E staining based analysis; type: organism-based; conditions: in vivo, dose 9-9.5 mg/kg
[8] = test system: B16-F10; experiment: Induction of apoptosis in mouse B16-F10 cells assessed as necrotic cells at 5 uM measured after 48 hrs by Annexin V-FITC/7-AAD staining based flow cytometric analysis relative to control; type: functional
[9] = test system: B16-F10; experiment: Antitumor activity against metastatic mouse B16-F10 cells implanted in C57BL/6 mouse assessed as number of lung metastases at 9 to 9.5 mg/kg, ip administered for 12 days by histological analysis (reference value: 150 +/- 7); type: functional; conditions: dose 9-9.5 mg/kg, time 12 day
[10] = test system: B16-F10; experiment: Antitumor activity against metastatic mouse B16-F10 cells implanted in C57BL/6 mouse assessed as number of lung metastases at 9 to 9.5 mg/kg, ip administered for 19 days by histological analysis (reference value: 190 +/- 9); type: functional; conditions: dose 9-9.5 mg/kg, time 19 day
[11] = test system: B16-F10; experiment: Induction of apoptosis in mouse B16-F10 cells assessed as necrotic cells at 15 uM measured after 48 hrs by Annexin V-FITC/7-AAD staining based flow cytometric analysis relative to control; type: functional
[12] = test system: B16-F10; experiment: Induction of apoptosis in mouse B16-F10 cells assessed as late apoptotic cells at 15 uM measured after 48 hrs by Annexin V-FITC/7-AAD staining based flow cytometric analysis relative to control; type: functional
[13] = test system: MEF; experiment: Cytotoxicity against NF2-deficient mouse MEF cells assessed as reduction in cell viability at 0.2 to 55 uM incubated for 24 hrs by alamarblue staining based analysis; type: toxicity; conditions: dose 0.2-55 µM
[14] = test system: B16-F10; experiment: Induction of apoptosis in mouse B16-F10 cells assessed as viable cells at 20 uM measured after 48 hrs by Annexin V-FITC/7-AAD staining based flow cytometric analysis relative to control; type: functional; conditions: read-out: Activity
[15] = test system: B16-F10; experiment: Cytotoxicity against mouse B16-F10 cells assessed as cell death by measuring increase in red fluorescence at 0.5 to 10 uM by calcein AM/PI staining based confocal laser scanning microscopy analysis; type: functional; conditions: dose 0.5-10 µM
[16] = Toxicity in C57BL/6 mouse implanted with mouse B16-F10 cells assessed as liver damage at 4.6 to 42 mg/kg, ip by H and E staining based analysis; type: organism-based; conditions: in vivo, dose 4.6-42 mg/kg
[17] = Toxicity in C57BL/6 mouse implanted with mouse B16-F10 cells assessed as heart damage at 9 to 9.5 mg/kg, ip by H and E staining based analysis; type: organism-based; conditions: in vivo, dose 9-9.5 mg/kg
[18] = test system: CT26; experiment: Cytotoxicity against mouse CT26 cells assessed as cell survival incubated for 24 hrs by alamarblue staining based analysis; type: functional; conditions: CT26, 24 h
[19] = Toxicity in C57BL/6 mouse implanted with mouse B16-F10 cells assessed as kidney damage at 4.6 to 42 mg/kg, ip by H and E staining based analysis; type: organism-based; conditions: in vivo, dose 4.6-42 mg/kg
[20] = Toxicity in C57BL/6 mouse assessed as change in body temperature at 37 mg/kg, ip measured for 22 days; type: organism-based; conditions: in vivo, 528 h, time 22 day
[21] = Toxicity in C57BL/6 mouse assessed as effect on AST level at 37 mg/kg, ip measured for 22 days; type: organism-based; conditions: in vivo, 528 h, time 22 day
[22] = test system: B16-F10; experiment: Induction of apoptosis in mouse B16-F10 cells assessed as late apoptotic cells at 20 uM measured after 48 hrs by Annexin V-FITC/7-AAD staining based flow cytometric analysis relative to control; type: functional
[23] = Toxicity in C57BL/6 mouse assessed as effect on ALT level at 37 mg/kg, ip measured for 22 days; type: organism-based; conditions: in vivo, 528 h, time 22 day
[24] = test system: B16-F10; experiment: Cytotoxicity against mouse B16-F10 cells assessed as cell death by measuring increase in red fluorescence at 10 uM by calcein AM/PI staining based confocal laser scanning microscopy analysis; type: functional
[25] = test system: B16-F10; experiment: Cytotoxicity against mouse B16-F10 cells assessed as cell survival incubated for 24 hrs by alamarblue staining based analysis; type: functional; conditions: B16-F10, 24 h
[26] = Toxicity in C57BL/6 mouse implanted with mouse B16-F10 cells assessed as kidney damage at 9 to 9.5 mg/kg, ip by H and E staining based analysis; type: organism-based; conditions: in vivo, dose 9-9.5 mg/kg
[27] = test system: B16-F10; experiment: Antitumor activity against metastatic mouse B16-F10 cells implanted in C57BL/6 mouse assessed as number of lung metastases at 4.6 to 42 mg/kg, ip administered every 3rd day for 22 days measured on day 23 by histological analysis (reference value: 223 +/- 12); type: functional; conditions: dose 4.6-42 mg/kg, time 23 day
[28] = Toxicity in C57BL/6 mouse implanted with mouse B16-F10 cells assessed as spleen damage at 4.6 to 42 mg/kg, ip by H and E staining based analysis; type: organism-based; conditions: in vivo, dose 4.6-42 mg/kg
[29] = Toxicity in C57BL/6 mouse implanted with mouse B16-F10 cells assessed as heart damage at 4.6 to 42 mg/kg, ip by H and E staining based analysis; type: organism-based; conditions: in vivo, dose 4.6-42 mg/kg
[30] = Cytotoxicity against NF2-deficient mouse MEF cells assessed as cell survival incubated for 24 hrs by alamarblue staining based analysis; type: toxicity
[31] = test system: B16-F10; experiment: Antitumor activity against metastatic mouse B16-F10 cells implanted in C57BL/6 mouse assessed as number of lung metastases at 9 to 9.5 mg/kg, ip administered for 15 days by histological analysis (reference value: 175 +/- 10); type: functional; conditions: dose 9-9.5 mg/kg, time 15 day
[32] = test system: B16-F10; experiment: Cytotoxicity against mouse B16-F10 cells assessed as inhibition of cell growth incubated for 24 hrs by alamarblue staining based assay; type: functional; conditions: dose 0.28-55 µM
[33] = test system: B16-F10; experiment: Induction of apoptosis in mouse B16-F10 cells assessed as early apoptotic cells at 10 uM measured after 48 hrs by Annexin V-FITC/7-AAD staining based flow cytometric analysis relative to control; type: functional
[34] = test system: B16-F10; experiment: Induction of apoptosis in mouse B16-F10 cells assessed as viable cells at 15 uM measured after 48 hrs by Annexin V-FITC/7-AAD staining based flow cytometric analysis relative to control; type: functional; conditions: read-out: Activity

SMILES | Activity [1] | Activity [2] | Activity [3] [%] | Activity [4] [%] | Activity [5] | viability at 10 µM [6] [%] | Activity [7] | Activity [8] [%] | Activity [9] | Activity [10] | Activity [11] [%] | Activity [12] [%] | Activity [13] | viability at 20 µM [14] [%] | Activity [15] | Activity [16] | Activity [17] | IC50 [18] [µM] | Activity [19] | Activity [20] | further results
CCOC(=O)c1c(N2C(N)=C(C#N)C(=O)/C2=C\C(=O)c2ccc(C)cc2)sc2c1CCCCC2 | Toxic | Non-Toxic | 75.6 | 0.5 | 40 | 1.1 | Non-Toxic | 32.8 | 145 | 67 | 3.3 | 96.1 | Non-Toxic | 0.2 | Active | Non-Toxic | Non-Toxic | 7.4 | Non-Toxic | Non-Toxic | Activity [21]: Non-Toxic; Activity [22]: 96.5%; Activity [23]: Non-Toxic; Activity [24]: Active; IC50 [25]: 4.8 µM; Activity [26]: Non-Toxic; Activity [27]: 29; Activity [28]: Non-Toxic; Activity [29]: Non-Toxic; IC50 at 24 h [30]: > 100 µM; Activity [31]: 105; Activity [32]: Dose-Dependent Effect; Activity [33]: 1.5%; viability at 15 µM [34]: 0.1%
CCOC(=O)c1c(NC(=C\C(=O)c2ccc(OC)cc2)/C([O-])=C(\C#N)C(N)=O)sc2c1CCCC2.[K+] | Toxic | Non-Toxic | 85.3 | 0.5 | 21 | 0.5 | Non-Toxic | 48.5 | 161 | 54 | 4.9 | 94.3 | Non-Toxic | 0.3 | Active | Non-Toxic | Non-Toxic | 4.3 | Non-Toxic | Non-Toxic | Activity [21]: Non-Toxic; Activity [22]: 95.1%; Activity [23]: Non-Toxic; Activity [24]: Active; IC50 [25]: 2.41 µM; Activity [26]: Non-Toxic; Activity [27]: ~10; Activity [28]: Non-Toxic; Activity [29]: Non-Toxic; IC50 at 24 h [30]: > 100 µM; Activity [31]: 94; Activity [32]: Dose-Dependent Effect; Activity [33]: 0.3%; viability at 15 µM [34]: 0.3%
COc1ccc(C(=O)/C=C2\C(=O)C(C#N)=C3NC(=O)c4c(sc5c4CCCCC5)N32)cc1 | Toxic | Non-Toxic | 88.6 | 0.8 | 75 | 0.3 | Non-Toxic | 3.2 | 143 | 87 | 7.2 | 91.7 | Non-Toxic | 0.2 | Active | Non-Toxic | Non-Toxic | 9.3 | Non-Toxic | Non-Toxic | Activity [21]: Non-Toxic; Activity [22]: 92%; Activity [23]: Non-Toxic; Activity [24]: Active; IC50 [25]: 6.2 µM; Activity [26]: Non-Toxic; Activity [27]: 55; Activity [28]: Non-Toxic; Activity [29]: Non-Toxic; IC50 at 24 h [30]: > 100 µM; Activity [31]: 120; Activity [32]: Dose-Dependent Effect; Activity [33]: 0.5%; viability at 15 µM [34]: 0.4%
